Reference: patent publication US8546451B2 (priority 2005, dated 2013)

Legend:
[1] = molecular target: PPAR-γ (Homo sapiens (Human), UniProt P37231); experiment: Cross-reactivity transcriptional activation assay, PPAR-γ; assay type: cell-based; conditions: agonist and antagonist modes
From the text: (§1) Compound IV was screened for cross-reactivity against rat isoforms of glucocorticoid receptor (GR), mineralocorticoids receptor (MR), progesterone receptor (PR), androgen receptor (AR) and human isoforms of farnesoid X receptor (FXR), liver X receptor (LXR), peroxisome proliferator-activated receptors (PPAR-α and PPAR-γ), and retinoid X receptor (RXR-α) in both agonist and antagonist modes in transcriptional activation assays.

[2] = Oral bioavailability in rats; assay type: in vivo
Description: Formulations using polyethylene glycol 300 (PEG300) generally produced higher exposures than microemulsions prepared in Tween 80 diluted in deionized water. […] Importantly, in dogs the exposure in the male 30 mg/kg PEG300 oral dose group exceeded the exposure necessary to produce the maximal effect on prostate reduction in the rat model of LH suppression.

[3] = test system: serum testosterone and total androgens; experiment: Testosterone suppression in Cynomolgus monkeys; assay type: in vivo; conditions: 30 mg/kg oral daily
[4] = molecular target: farnesoid X receptor (FXR) (Homo sapiens (Human), UniProt Q96RI1); experiment: Cross-reactivity transcriptional activation assay, FXR; assay type: cell-based; conditions: agonist and antagonist modes
From the text: as §1

[5] = molecular target: progesterone receptor (PR) (Rattus norvegicus (Rat), UniProt Q63449); experiment: Cross-reactivity transcriptional activation assay, PR; assay type: cell-based; conditions: agonist and antagonist modes
From the text: as §1

Chain of PPAR-γ (P37231 whole entry, canonical isoform): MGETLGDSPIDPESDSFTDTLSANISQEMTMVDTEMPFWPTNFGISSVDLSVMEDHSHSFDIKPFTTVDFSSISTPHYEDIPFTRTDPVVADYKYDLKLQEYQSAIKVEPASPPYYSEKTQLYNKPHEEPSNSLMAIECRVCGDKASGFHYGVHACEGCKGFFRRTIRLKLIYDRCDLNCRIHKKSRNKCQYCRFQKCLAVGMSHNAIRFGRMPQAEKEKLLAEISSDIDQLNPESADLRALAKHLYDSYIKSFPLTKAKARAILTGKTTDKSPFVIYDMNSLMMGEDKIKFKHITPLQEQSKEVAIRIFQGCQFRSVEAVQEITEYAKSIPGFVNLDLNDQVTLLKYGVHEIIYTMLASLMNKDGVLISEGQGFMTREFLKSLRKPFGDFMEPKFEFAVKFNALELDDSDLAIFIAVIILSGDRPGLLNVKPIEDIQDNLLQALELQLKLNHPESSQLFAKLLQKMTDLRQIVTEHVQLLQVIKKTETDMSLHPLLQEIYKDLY
Chain of progesterone receptor (PR) (Q63449 whole entry): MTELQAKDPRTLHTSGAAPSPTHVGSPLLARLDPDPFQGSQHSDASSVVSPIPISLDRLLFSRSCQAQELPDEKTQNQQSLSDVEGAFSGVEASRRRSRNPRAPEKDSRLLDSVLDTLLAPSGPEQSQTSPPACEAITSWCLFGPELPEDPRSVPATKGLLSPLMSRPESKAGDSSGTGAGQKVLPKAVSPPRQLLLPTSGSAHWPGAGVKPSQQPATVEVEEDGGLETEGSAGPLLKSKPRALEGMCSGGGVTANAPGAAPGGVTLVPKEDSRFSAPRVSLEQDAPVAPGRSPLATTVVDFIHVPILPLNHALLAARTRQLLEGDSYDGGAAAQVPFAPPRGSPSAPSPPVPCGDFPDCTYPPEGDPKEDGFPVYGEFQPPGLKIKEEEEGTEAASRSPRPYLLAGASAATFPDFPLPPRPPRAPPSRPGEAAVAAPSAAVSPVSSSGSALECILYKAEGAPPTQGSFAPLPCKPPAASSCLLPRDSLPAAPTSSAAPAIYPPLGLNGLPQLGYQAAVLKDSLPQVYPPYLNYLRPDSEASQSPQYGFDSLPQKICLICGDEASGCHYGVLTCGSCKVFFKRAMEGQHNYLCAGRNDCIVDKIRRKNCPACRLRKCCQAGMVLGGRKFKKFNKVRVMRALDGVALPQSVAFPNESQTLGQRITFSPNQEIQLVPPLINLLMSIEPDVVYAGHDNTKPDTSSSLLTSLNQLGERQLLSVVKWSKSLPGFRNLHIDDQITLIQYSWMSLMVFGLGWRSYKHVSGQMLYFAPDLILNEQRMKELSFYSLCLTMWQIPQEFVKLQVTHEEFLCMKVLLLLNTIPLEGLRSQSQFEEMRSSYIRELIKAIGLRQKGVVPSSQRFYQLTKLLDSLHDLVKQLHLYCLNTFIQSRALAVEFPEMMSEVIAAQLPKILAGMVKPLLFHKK
Chain of farnesoid X receptor (FXR) (Q96RI1 whole entry): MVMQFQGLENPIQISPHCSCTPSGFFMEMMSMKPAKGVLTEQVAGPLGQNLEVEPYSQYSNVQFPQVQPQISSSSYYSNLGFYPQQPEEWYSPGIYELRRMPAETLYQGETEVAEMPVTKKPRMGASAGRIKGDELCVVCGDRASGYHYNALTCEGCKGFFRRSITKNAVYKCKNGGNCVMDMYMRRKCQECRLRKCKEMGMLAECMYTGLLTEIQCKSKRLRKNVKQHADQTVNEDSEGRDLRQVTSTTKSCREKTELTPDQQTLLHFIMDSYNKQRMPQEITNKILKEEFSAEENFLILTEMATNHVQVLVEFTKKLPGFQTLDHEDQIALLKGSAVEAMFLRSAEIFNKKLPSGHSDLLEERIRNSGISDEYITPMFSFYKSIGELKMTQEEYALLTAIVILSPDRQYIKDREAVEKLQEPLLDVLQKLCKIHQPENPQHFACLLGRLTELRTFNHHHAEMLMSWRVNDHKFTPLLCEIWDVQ

Structure (SMILES): O=C(c1ccc(O)c(F)c1)N(c1ccc(O)cc1)c1ccc(F)cc1 [Compound IV, 3-fluoro-N-(4-fluorophenyl)-4-hydroxy-N-(4-hydroxyphenyl)benzamide]
- agonist or antagonist activity [1]: did not display any agonist or antagonist activity
- absorption following oral dosing [2]: rapidly absorbed
- bioavailability ([2]; rat, in vivo, po, depending on the formulation): 6 to 25%
- Testosterone Percent reduction from baseline ([3]; Animal 1, Day 2): 16%
- Testosterone Serum level ([3]; Animal 1, Day 2): 937 pg/mL
- Total Androgens Percent reduction from baseline ([3]; Animal 1, Day 2): 37%
- Total Androgens Serum level ([3]; Animal 1, Day 2): 1178 pg/mL
- Testosterone Percent reduction from baseline ([3]; Animal 1, Day 3): 30%
- Testosterone Serum level ([3]; Animal 1, Day 3): 784 pg/mL
- Total Androgens Percent reduction from baseline ([3]; Animal 1, Day 3): 42%
- Total Androgens Serum level ([3]; Animal 1, Day 3): 1078 pg/mL
- Testosterone Percent reduction from baseline ([3]; Animal 1, Day 4): 51%
- Testosterone Serum level ([3]; Animal 1, Day 4): 552 pg/mL
- Total Androgens Percent reduction from baseline ([3]; Animal 1, Day 4): 47%
- Total Androgens Serum level ([3]; Animal 1, Day 4): 988 pg/mL
- Testosterone Percent reduction from baseline ([3]; Animal 1, Day 5): 64%
- Testosterone Serum level ([3]; Animal 1, Day 5): 403 pg/mL
- Total Androgens Percent reduction from baseline ([3]; Animal 1, Day 5): 48%
- Total Androgens Serum level ([3]; Animal 1, Day 5): 966 pg/mL
- Testosterone Percent reduction from baseline ([3]; Animal 1, Day 6): 58%
- Testosterone Serum level ([3]; Animal 1, Day 6): 474 pg/mL
- Total Androgens Percent reduction from baseline ([3]; Animal 1, Day 6): 56%
- Total Androgens Serum level ([3]; Animal 1, Day 6): 819 pg/mL
- Testosterone Percent reduction from baseline ([3]; Animal 3, Day 2): 22%
- Testosterone Serum level ([3]; Animal 3, Day 2): 479 pg/mL
- Total Androgens Percent reduction from baseline ([3]; Animal 3, Day 2): 48%
- Total Androgens Serum level ([3]; Animal 3, Day 2): 847 pg/mL
- Testosterone Percent reduction from baseline ([3]; Animal 3, Day 3): 29%
- Testosterone Serum level ([3]; Animal 3, Day 3): 437 pg/mL
- Total Androgens Percent reduction from baseline ([3]; Animal 3, Day 3): 52%
- Total Androgens Serum level ([3]; Animal 3, Day 3): 786 pg/mL
- Testosterone Percent reduction from baseline ([3]; Animal 3, Day 4): 33%
- Testosterone Serum level ([3]; Animal 3, Day 4): 415 pg/mL
- Total Androgens Percent reduction from baseline ([3]; Animal 3, Day 4): 44%
- Total Androgens Serum level ([3]; Animal 3, Day 4): 924 pg/mL
- Testosterone Percent reduction from baseline ([3]; Animal 3, Day 5): 55%
- Testosterone Serum level ([3]; Animal 3, Day 5): 276 pg/mL
- Total Androgens Percent reduction from baseline ([3]; Animal 3, Day 5): 60%
- Total Androgens Serum level ([3]; Animal 3, Day 5): 664 pg/mL
- Testosterone Percent reduction from baseline ([3]; Animal 3, Day 6): 64%
- Testosterone Serum level ([3]; Animal 3, Day 6): 221 pg/mL
- Total Androgens Percent reduction from baseline ([3]; Animal 3, Day 6): 56%
- Total Androgens Serum level ([3]; Animal 3, Day 6): 726 pg/mL
- agonist or antagonist activity [4]: did not display any agonist or antagonist activity
- agonist or antagonist activity [5]: did not display any agonist or antagonist activity
